Experimental data taken from patent US9994812B2, “Systems and method for engineering muscle tissue” (UNIVERSITY OF WASHINGTON THROUGH ITS CENTER FOR …, priority 2012, dated 2018).

How the values were obtained:
Type in all cases: cell-based, human
[1] = system: control IMR90 cells (IMR90 hiPSC-derived cardiomyocytes); assay: Sarcomere organization on nanotextured platforms, control cells; conditions: addition of isoproterenol
Text: (§1) FIG. 34A-34D show nanotextured platforms facilitate maturation of hiPSC-derived cardiomyocytes allowing them to be used as effective disease models for drug testing against cardiomyopathies, and as in vitro cardiac disease models. […] Since nanotextures allow physiological organization of sarcomeres, it serves as a disease model to test the effect of a drug on a diseased cardiomyocyte.

[2] = system: MHY7 mutated iPSC-derived CMs; assay: Sarcomere organization on nanotextured platforms, disease model; conditions: addition of isoproterenol
Text: as §1

[3] = system: hESC-derived cardiomyocyte cultures; assay: Action potential time course traces with 1 Hz pacing on the nanotextured substrate; conditions: 0, 20 and 40 μM, 4 seconds
Description: Representative action potential time course traces for 4 seconds in the presence of 1 Hz pacing in the presence of carboxelone, a GAP junction inhibitor at 0 μM (FIG. 19A), 20 μM (FIG. 19B), and 40 μM (FIG. 19C) are shown.

[4] = system: paced hiPSC-derived cardiomyocytes monolayer; assay: Optical mapping of conduction velocity vectors and spatial activation map; conditions: 40 μM vs 0 μM
hES-CM monolayers = assay: Action potential profile of monolayers on the ANP polymer substrate
[5] = system: cardiomyocytes derived from healthy, and diseased hiPSC cells; assay: Drug testing on ANP, action potential profile; conditions: addition of Verapamil
[6] = system: hESC-derived cardiomyocytes (hESC-CMs); assay: High throughput cardiotoxicity profiling, live/dead imaging (Calcein-AM / EtBr); conditions: doxorubicin, 24 hrs
Description: FIGS. 16A-16B show high throughput cardiotoxicity profiling. To test the capacity of the ANP and system to identify cardiotoxic drugs, hESC-derived cardiomyocytes (hESC-CMs) were treated with doxorubicin for 24 hrs and then imaged using the high-throughput Applied Precision DeltaVision system.

**Q.** What does the source list for `CC(C)NCC(O)c1ccc(O)c(O)c1` (stereo not drawn) [isoproterenol]?
**A.** sarcomeric organization [1]: does not result in loss of sarcmeric organization; sarcomere organization [2]: results in loss of sarcomere organization

**Q.** How did the “effect on action potential time course traces” value [3] turn out when `CC1(C)[C@@H](OC(=O)CCC(=O)O)CC[C@]2(C)[C@H]3C(=O)C=C4[C@@H]5C[C@@](C)(C(=O)O)CC[C@]5(C)CC[C@@]4(C)[C@]3(C)CC[C@@H]12` [carboxelone] was run?
**A.** dose dependent

**Q.** What about the conduction velocity vectors [4] of the same compound?
**A.** decrease in conduction across the tissue

**Q.** And the “spatial activation map of electrical activity” value [4]?
**A.** decrease in electrical activity of the monolayer

**Q.** Which AP profile (hES-CM monolayers; K+ channel inhibitor on hES-CM monolayers) does the source give for `COc1cc(N)c(Cl)cc1C(=O)NC1CCN(CCCOc2ccc(F)cc2)CC1OC` (stereo not drawn) [cisapride] here?
**A.** distortions in AP profile

**Q.** And the “prolongation of action potential” value (hES-CM monolayers; addition of cisapride for 2 minutes)?
**A.** prolongation of action potential in a significant manner

**Q.** With `COc1ccc(CCN(C)CCCC(C#N)(c2ccc(OC)c(OC)c2)C(C)C)cc1OC` (stereo not drawn) [Verapamil] as the compound, how does the AP profile [5] read?
**A.** causes distortions in AP profile

**Q.** How did the “percentage of dead hESC-CMs” value [6] turn out when `COc1cccc2c1C(=O)c1c(O)c3c(c(O)c1C2=O)C[C@@](O)(C(=O)CO)C[C@@H]3O[C@H]1C[C@H](N)[C@H](O)[C@H](C)O1` [doxorubicin] was run?
**A.** statistically significant increase
